In patent publication US20240400561A1, “NOVEL SUBSTITUTED SULFONYLUREA COMPOUNDS AS INHIBITORS OF INTERLEUKIN-1 ACTIVITY” (Viva Star Biosciences (Suzhou) Co., Ltd., priority 2021, published 2024):

Target: T1, NLRP3 (Homo sapiens, UniProt Q96P20)
T1 construct: Seed THP-1 cells (5.56*10^5 cells/mL) containing 1.0 ug/mL LPS; endogenous in cells; host or cells: THP-1 cells
Test: THP-1 cell assay (LPS priming, nigericin), IL1β release by HTRF; called pyroptosis assay, THP IC50
Format: cell-based
Settings: NLRP3 inhibitory activity; THP-1 cells, 1.0 ug/mL LPS, compound 3 hrs, nigericin 5 uM 1 hr, IL1β in supernatant
Protocol: The following method was used for compound screening. • 1. Seed THP-1 cells (5.56*10^5 cells/mL) containing 1.0 ug/mL LPS (SIGMA, L6529) in 45 uL RPMI 1640 medium (without FBS) into 384-well plate (Thermo Scientific, 164688). • 2. Add 5 uL compound (10 doses starting from 5 uM, 1:3 dilution) or vehicle (0.05% DMSO in medium) to the appropriate wells. • 3. Centrifuge the plates at 1000 rpm for 2 mins and incubate for 3 hrs at 37° C., 5% CO2. • 4. Add 5 uL nigericin (MEC, HY-100381) (final conc. 5 uM) to sample wells and positive control wells; add 5 uL RPMI 1640 medium to negative control wells. • 5. Centrifuge plates at 1000 rpm for 2 mins and incubate for 1 hr at 37° C., 5% CO2. • 6. At the end of the incubation period, centrifuge plates at 1000 rpm for 6 mins and transfer 8 uL supernatant into 384-well assay plates (PerkinElmer, 6008280). • 7. Add 8 ul RPMI 1640 medium into each well and spin down for 10 secs. • 8. Prepare the standard solutions and pre-mixed IL1β antibody solution of Human […] kits (PerkinElmer, 62HIL1BPEH) according to the instruction. • 9. Add 16 uL standard solutions into clear wells of 384-well assay plates. • 10. Add 4 uL pre-mixed IL1β antibody solution to all wells including sample wells, positive control wells, negative control wells and standard solutions wells. • 11. Seal the plates, spin down for 10 secs, incubation for overnight at RT and read on an HTRF® compatible reader (BMG LABTECH, PHERAstar FS). • 12. The concentrations of IL1β for treated wells are calculated by the standard curve. • 13. The IC50 data is fitted to a non-liner regression equation (log inhibitor vs. response—Variable slope four parameters)).

T1 sequence (Q96P20 whole entry): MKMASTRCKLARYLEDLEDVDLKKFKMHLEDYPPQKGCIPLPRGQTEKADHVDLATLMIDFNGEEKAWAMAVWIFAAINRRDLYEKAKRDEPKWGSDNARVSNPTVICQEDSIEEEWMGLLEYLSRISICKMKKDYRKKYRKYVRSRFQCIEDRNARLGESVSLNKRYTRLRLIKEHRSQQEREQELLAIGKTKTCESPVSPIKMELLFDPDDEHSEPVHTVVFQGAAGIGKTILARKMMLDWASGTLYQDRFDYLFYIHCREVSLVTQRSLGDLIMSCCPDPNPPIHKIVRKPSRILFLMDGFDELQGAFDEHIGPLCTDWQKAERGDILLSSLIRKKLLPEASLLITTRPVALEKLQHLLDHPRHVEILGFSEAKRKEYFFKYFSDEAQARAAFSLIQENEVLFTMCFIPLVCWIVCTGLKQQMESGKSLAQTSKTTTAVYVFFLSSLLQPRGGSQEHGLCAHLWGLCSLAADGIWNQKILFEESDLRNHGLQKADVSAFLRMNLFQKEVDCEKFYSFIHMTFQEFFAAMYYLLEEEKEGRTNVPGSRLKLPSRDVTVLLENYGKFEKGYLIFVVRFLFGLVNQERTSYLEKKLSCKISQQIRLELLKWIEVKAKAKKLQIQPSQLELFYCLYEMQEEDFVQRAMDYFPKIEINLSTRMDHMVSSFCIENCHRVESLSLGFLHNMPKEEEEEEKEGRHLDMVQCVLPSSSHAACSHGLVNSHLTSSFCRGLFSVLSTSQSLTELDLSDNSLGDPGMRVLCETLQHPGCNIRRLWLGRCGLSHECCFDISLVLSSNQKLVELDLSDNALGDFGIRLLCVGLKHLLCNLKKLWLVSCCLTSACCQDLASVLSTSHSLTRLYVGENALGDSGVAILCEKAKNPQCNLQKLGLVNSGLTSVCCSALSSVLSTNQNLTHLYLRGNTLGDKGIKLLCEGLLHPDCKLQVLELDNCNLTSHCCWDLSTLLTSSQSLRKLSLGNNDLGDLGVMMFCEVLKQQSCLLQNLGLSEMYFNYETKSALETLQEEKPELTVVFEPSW

| IC50 [nM] | SMILES |
| --- | --- |
| ≤ 30 | Cc1cc2c(c(NC(=O)NS(=O)(=O)c3ccn(CC4CCC4)n3)c1-c1ccn3nccc3c1)CCC2 [Example 11, 1-(cyclobutylmethyl)-N-((6-methyl-5-(pyrazolo[1,5-a]pyridin-5-yl)-2,3-dihydro-1H-inden-4-yl)carbamoyl)-1H-pyrazole-3-sulfonamide] |
| 30 to 300 | Cc1c(-c2ccc3c(c2NC(=O)NS(=O)(=O)c2cc(C(C)(C)O)cs2)CCC3)ccn2ccnc12 [Example 72, 4-(2-hydroxypropan-2-yl)-N-((5-(8-methylimidazo[1,2-a]pyridin-7-yl)-2,3-dihydro-1H-inden-4-yl)carbamoyl)thiophene-2-sulfonamide] |
| > 2000 | Cc1cc2c(c(NC(=O)NS(=O)(=O)c3ccn([C@@H]4CC[C@@H]4O)n3)c1-c1ccn3nccc3c1)CCC2 (relative stereo) [Example 85, 1-(rel-(1R,2S)-2-hydroxycyclobutyl)-N-((6-methyl-5-(pyrazolo[1,5-a]pyridin-5-yl)-2,3-dihydro-1H-inden-4-yl)carbamoyl)-1H-pyrazole-3-sulfonamide] |
| ≤ 30 | Cc1cc2c(c(NC(=O)NS(=O)(=O)c3ccn(C4CC4)n3)c1-c1ccc3ncnn3c1)CCC2 [Example 97, N-((5-([1,2,4]triazolo[1,5-a]pyridin-6-yl)-6-methyl-2,3-dihydro-1H-inden-4-yl)carbamoyl)-1-cyclopropyl-1H-pyrazole-3-sulfonamide] |
| 30 to 300 | CC(C)(O)c1csc(S(=O)(=O)NC(=O)Nc2c(-c3ccn4nncc4c3)ccc3c2CCC3)c1 [Example 62, N-((5-([1,2,3]triazolo[1,5-a]pyridin-5-yl)-2,3-dihydro-1H-inden-4-yl)carbamoyl)-4-(2-hydroxypropan-2-yl)thiophene-2-sulfonamide] |
| ≤ 30 | CC(C)(O)c1csc(S(=O)(=O)NC(=O)Nc2c(-c3ccn4cncc4c3)ccc3c2CCC3)c1 [Example 54, 4-(2-hydroxypropan-2-yl)-N-((5-(imidazo[1,5-a]pyridin-7-yl)-2,3-dihydro-1H-inden-4-yl)carbamoyl)thiophene-2-sulfonamide] |
| 30 to 300 | CC(C)(O)c1csc(S(=O)(=O)NC(=O)Nc2c(-c3ccnc4c3ccn4C3CC3)ccc3c2CCC3)c1 [Example 49, N-((5-(1-cyclopropyl-1H-pyrrolo[2,3-b]pyridin-4-yl)-2,3-dihydro-1H-inden-4-yl)carbamoyl)-4-(2-hydroxypropan-2-yl)thiophene-2-sulfonamide] |

More lines, now with the values behind:

| SMILES | IC50 [nM] |
| --- | --- |
| Cc1cc2c(c(NC(=O)NS(=O)(=O)c3ccn(C4CC4)n3)c1-c1ccn3nccc3c1)CCC2 [Example 1, 1-cyclopropyl-N-((6-methyl-5-(pyrazolo[1,5-a]pyridin-5-yl)-2,3-dihydro-1H-inden-4-yl)carbamoyl)-1H-pyrazole-3-sulfonamide] | ≤ 30 |
| CC(C)(O)c1csc(S(=O)(=O)NC(=O)Nc2c(-c3ccn4ncnc4c3)ccc3c2CCC3)c1 [Example 53, N-((5-([1,2,4]triazolo[1,5-a]pyridin-7-yl)-2,3-dihydro-1H-inden-4-yl)carbamoyl)-4-(2-hydroxypropan-2-yl)thiophene-2-sulfonamide] | ≤ 30 |
| CC(C)(O)c1csc(S(=O)(=O)NC(=O)Nc2c(-c3ccn4ccnc4c3)ccc3c2CCC3)c1 [Example 42, 4-(2-hydroxypropan-2-yl)-N-((5-(imidazo[1,2-a]pyridin-7-yl)-2,3-dihydro-1H-inden-4-yl)carbamoyl)thiophene-2-sulfonamide] | ≤ 30 |
| Cc1cc2cc(-c3ccc4c(c3NC(=O)NS(=O)(=O)c3cc(C(C)(C)O)cs3)CCC4)ccn2n1 [Example 74, 4-(2-hydroxypropan-2-yl)-N-((5-(2-methylpyrazolo[1,5-a]pyridin-5-yl)-2,3-dihydro-1H-inden-4-yl)carbamoyl)thiophene-2-sulfonamide] | ≤ 30 |
| N#Cc1cc2c(c(NC(=O)NS(=O)(=O)c3cnn(CC4CC4)c3)c1-c1ccn3cncc3c1)CCC2 [Example 13, N-((6-cyano-5-(imidazo[1,5-a]pyridin-7-yl)-2,3-dihydro-1H-inden-4-yl)carbamoyl)-1-(cyclopropylmethyl)-1H-pyrazole-4-sulfonamide] | ≤ 30 |
| O=C(Nc1c(-c2cnc3ccnn3c2)ccc2c1CCC2)NS(=O)(=O)c1cnn(CC2CC2)c1 [Example 22, 1-(cyclopropylmethyl)-N-((5-(pyrazolo[1,5-a]pyrimidin-6-yl)-2,3-dihydro-1H-inden-4-yl)carbamoyl)-1H-pyrazole-4-sulfonamide] | > 2000 |
| CC(C)(O)c1csc(S(=O)(=O)NC(=O)Nc2c(-c3ccn4nccc4c3)ccc3c2CCC3)c1 [Example 60, 4-(2-hydroxypropan-2-yl)-N-((5-(pyrazolo[1,5-a]pyridin-5-yl)-2,3-dihydro-1H-inden-4-yl)carbamoyl)thiophene-2-sulfonamide] | ≤ 30 |
| O=C(Nc1c2c(cc(CO)c1-c1ccn3nccc3c1)CCC2)NS(=O)(=O)c1ccn(C2CC2)n1 [Example 98, 1-cyclopropyl-N-((6-(hydroxymethyl)-5-(pyrazolo[1,5-a]pyridin-5-yl)-2,3-dihydro-1H-inden-4-yl)carbamoyl)-1H-pyrazole-3-sulfonamide] | 30 to 300 |
| COC(c1cc(S(=O)(=O)NC(=O)Nc2c3c(cc(C)c2-c2ccn4nccc4c2)CCC3)nn1C)C1CC1 (stereo not shown) [Example 15, 5-(cyclopropyl(methoxy)methyl)-1-methyl-N-((6-methyl-5-(pyrazolo[1,5-a]pyridin-5-yl)2,3-dihydro-1H-inden-4-yl)carbamoyl)-1H-pyrazole-3-sulfonamide] | 30 to 300 |
| Cc1cc2c(c(NC(=O)NS(=O)(=O)c3ccn(C(C)C4CC4)n3)c1-c1ccn3nccc3c1)CCC2 (stereo not shown) [Example 82, 1-(1-cyclopropylethyl)-N-((6-methyl-5-(pyrazolo[1,5-a]pyridin-5-yl)-2,3-dihydro-1H-inden-4-yl)carbamoyl)-1H-pyrazole-3-sulfonamide] | 300 to 1000 |
| O=C(Nc1c2c(cc(F)c1-c1ccn3nccc3c1)CCC2)NS(=O)(=O)c1ccn(C2CC2)n1 [Example 25, 1-cyclopropyl-N-((6-fluoro-5-(pyrazolo[1,5-a]pyridin-5-yl)-2,3-dihydro-1H-inden-4-yl)carbamoyl)pyrazole-3-sulfonamide] | ≤ 30 |
| Cc1cc2c(c(NC(=O)NS(=O)(=O)C3CC(OC4CC4)C3)c1-c1ccn3nccc3c1)CCC2 (stereo not shown) [Example 75, 3-cyclopropoxy-N-((6-methyl-5-(pyrazolo[1,5-a]pyridin-5-yl)-2,3-dihydro-1H-inden-4-yl)carbamoyl)cyclobutane-1-sulfonamide] | 30 to 300 |
| Cc1cc2c(c(NC(=O)NS(=O)(=O)c3cc(CC4CC4)n(C)n3)c1-c1ccn3nccc3c1)CCC2 [Example 17, 5-(cyclopropylmethyl)-1-methyl-N-((6-methyl-5-(pyrazolo[1,5-a]pyridin-5-yl)-2,3-dihydro-1H-inden-4-yl)carbamoyl)-1H-pyrazole-3-sulfonamide] | ≤ 30 |
| Cc1cc2c(c(NC(=O)NS(=O)(=O)c3cncc(C4CCC4)c3)c1-c1ccn3nccc3c1)CCC2 [Example 84, 5-cyclobutyl-N-((6-methyl-5-(pyrazolo[1,5-a]pyridin-5-yl)-2,3-dihydro-1H-inden-4-yl)carbamoyl)pyridine-3-sulfonamide] | ≤ 30 |
| CC(C)(O)c1csc(S(=O)(=O)NC(=O)Nc2c(-c3cnc4[nH]ccc4c3)ccc3c2CCC3)c1 [Example 46, N-((5-(1H-pyrrolo[2,3-b]pyridin-5-yl)-2,3-dihydro-1H-inden-4-yl)carbamoyl)-4-(2-hydroxypropan-2-yl)thiophene-2-sulfonamide] | 30 to 300 |
